Assay results published in US20160296538A1, “[…] RESPONSE BIOMARKER FOR TH-302 ANTI-CANCER THERAPY” (THRESHOLD PHARMACEUTICALS, INC., priority 2013, published 2016).
“Also recorded” adds a separate entry of the source.

What was measured:
[1] = system: H460 non-small cell lung cancer xenograft; assay: H460 ectopic xenograft tumor growth and body weight, 150 mg/kg i.p.; format: in vivo, nu/nu mice
Source text: (§1) Proliferating cells (as measured by Ki-67 immunostaining) were decreased as well; DNA damage (as measured by γH2AX immunostaining) and necrosis (as measured by hematoxylin and eosin, H&E, staining) were increased. There was regional co-localization of pimonidazole and CA-IX, but not co-localization of pimonidazole and two other putative endogenous hypoxia markers: Glut-1 or HIF-1α.
The human H460 non-small cell lung cancer human tumor ectopic xenograft model was employed for this study. The H460 non-small cell lung cancer xenograft model was established by s.c. implantation of 1×10^6 cells in the flank of nu/nu mice. When the tumor size was 100 mm^3, a single dose of TH-302 (150 mg/kg, i.p.) or vehicle was administered.

[2] = system: H460 xenograft tumor hypoxia ([18F]-HX4 uptake); assay: [18F]-HX4 PET/CT imaging of H460 xenograft tumors; format: in vivo, nu/nu mice
Source text: as §1
(§2) Three biomarker platforms were employed in this study: positron emission tomography (PET) imaging employing the tracer [18F]-HX4; immunohistochemistry of isolated tumor tissue employing antibodies directed against the exogenous hypoxia biomarker pimonidazole and the endogenous hypoxia biomarker carbonic anhydrase IX (CA-IX); and ELISA-based quantification of circulating plasma CA-IX.
(§3) [18F]-HX4 uptake was assessed by PET/CT imaging, and the tumor to muscle ratio (T/M) was determined. […] Blood was collected from the pre- and post-treated animals via retro-orbital venipuncture. Plasma CA-IX changed from baseline 165±13 to 104±9.3 pg/ml 72 hours after TH-302 dosing, a 37% reduction (p<0.05; n=10 per group). […] For tissue biomarker analysis, tumors were harvested 72 hours after TH-302 treatment, and tumor hypoxia was assessed by semi-quantitative morphometric analysis of the PIMO immunostaining at that time. […]

[3] = system: carbonic anhydrase IX (CA-IX); assay: ELISA quantification of circulating plasma CA-IX in H460 xenograft animals; format: in vivo, nu/nu mice; details: for circulating plasma CA-IX level change: 72 hours, TH-302 150 mg/kg i.p., doxorubicin 4 mg/kg iv
Description: as §2
[18F]-HX4 uptake was assessed by PET/CT imaging, and the tumor to muscle ratio (T/M) was determined. […] Blood was collected from the pre- and post-treated animals via retro-orbital venipuncture. […] For tissue biomarker analysis, tumors were harvested 72 hours after TH-302 treatment, and tumor hypoxia was assessed by semi-quantitative morphometric analysis of the PIMO immunostaining at that time.

[4] = system: H460 xenograft tumor hypoxia (pimonidazole); assay: Pimonidazole immunostaining of H460 tumors (hypoxic fraction); format: in vivo, nu/nu mice
Source text: as §1, §2, §3

[5] = system: H460 xenograft tumors; assay: Tissue biomarkers in H460 tumors (Ki67, γH2AX, H&E); format: in vivo, nu/nu mice; details: 72 hours after 150 mg/kg i.p.
Description: as §1
[18F]-HX4 uptake was assessed by PET/CT imaging, and the tumor to muscle ratio (T/M) was determined. […] Blood was collected from the pre- and post-treated animals via retro-orbital venipuncture. Plasma CA-IX changed from baseline 165±13 to 104±9.3 pg/ml 72 hours after TH-302 dosing, a 37% reduction (p<0.05; n=10 per group). […] For tissue biomarker analysis, tumors were harvested 72 hours after TH-302 treatment, and tumor hypoxia was assessed by semi-quantitative morphometric analysis of the PIMO immunostaining at that time. The hypoxic fraction (HF) was 13±1.7% in the vehicle group (n=5) and 5.8±0.5% in the TH-302 treatment group (n=6, p<0.05).

[6] = system: H460 human non-small cell lung cancer (NSCLC) cell line; assay: H460 NSCLC xenograft tumor growth, repeated dosing; format: in vivo; details: H460 model; 50 mg/kg QDx5 for 2 wk, i.p.; P vs vehicle <0.001
Source text: (§4) H460 is a high hypoxic fraction tumor model, while the 786-O RCC model is well-vascularized with very low hypoxia. […] When compiling the data from both H460 and 786-O tumors, there was significant correlation between [18F]-HX4 uptake and pimonidazole-positive hypoxic fraction (HF %, R2=0.55, p=0.006).
(§5) The utility of [18F]-HX4 to serve as a predictive biomarker for TH-302 anti-cancer efficacy was shown by the significant correlation observed between the TH-302 anti-cancer efficacy in a model and its hypoxic fraction as measured by [18F]-HX4. […] TGD500 was determined as the increased time (days) for the treated tumor's size on average to reach 500 mm^3 as compared with the vehicle group. TGI was defined as (1−ΔT/ΔC)×100, where ΔT/ΔC is the ratio of the change in mean tumor volume of the treated group (ΔT) and of the control group (ΔC).

[7] = system: 786-O human renal cell carcinoma (RCC) cell line; assay: 786-O RCC xenograft tumor growth, repeated dosing; format: in vivo; details: 786-O model; 50 mg/kg QDx5 for 2 wk, i.p.; P vs vehicle >0.05
Source text: as §4, §5

[8] = 72 hrs after one dose at 150 mg/kg i.p.

Cn1c(COP(=O)(NCCBr)NCCBr)cnc1[N+](=O)[O-] [TH-302, (2-bromoethyl)({[(2-bromoethyl)amino][(2-nitro-3-methylimidazol-4-yl)methoxy]phosphoryl})amine]
tumor growth in relation to initial [18F]-HX4 uptake ([1]; 150 mg/kg i.p., Q4-5Dx3): tumors with higher initial [18F]-HX4 uptake grew slower
tumor volume change [1, 8]: did not change significantly
TGD1000 (tumor growth delay to tumor size of 1000 mm^3) ([1]; single dose 150 mg/kg i.p.): 10 days
maximum body weight loss ([1]; single dose 150 mg/kg i.p.): 2%
TGI (tumor growth inhibition) ([1]; single dose 150 mg/kg i.p. at tumor size 100 mm^3): 58%
[18F]-HX4 tumor to muscle ratio (T/M) ([2]; 72 hours after 150 mg/kg i.p., pre-treatment 3.3±0.3, p<0.005): 2.1±0.2
[18F]-HX4 uptake change (PET-CT) [2, 8]: significantly reduced
Plasma CA-IX ([3]; 72 hours after dosing 150 mg/kg i.p., baseline 165±13, n=10 per group): 104 ± 9.3 pg/mL
Plasma CA-IX reduction from baseline ([3]; 72 hours after dosing 150 mg/kg i.p., p<0.05): 37%
circulating plasma CA-IX level change [3]: significantly reduced
hypoxic fraction (HF %) change, pimonidazole immunostaining ([4]; 72 hours after treatment): significantly reduced
hypoxic fraction (HF), PIMO immunostaining ([4]; tumors harvested 72 hours after 150 mg/kg i.p., vehicle 13±1.7%, n=6, p<0.05): 5.8±0.5%
DNA damage (γH2AX immunostaining) [5]: significantly increased
Proliferating cells (Ki67 immunostaining) [5]: decreased; also recorded: significantly reduced
necrosis (hematoxylin and eosin staining) [5]: significantly increased
TGD500 (increased time for treated tumor to reach 500 mm^3 vs vehicle) [6]: 18 days
TGI [6]: 89%
TGD500 (increased time for treated tumor to reach 500 mm^3 vs vehicle) [7]: 10 days
TGI [7]: 10%

COc1cccc2c1C(=O)c1c(O)c3c(c(O)c1C2=O)C[C@@](O)(C(=O)CO)C[C@@H]3O[C@H]1C[C@H](N)[C@H](O)[C@H](C)O1 [doxorubicin, reference compound]
circulating plasma CA-IX level change [3]: did not change circulating CA-IX levels significantly; also recorded: No change
